According to patent US10173996B2, “Histone demethylase inhibitors” (CELGENE QUANTICEL RESEARCH, INC., priority 2012, dated 2019):

System: KDM5A and KDM5B (tri-methyl H3K4, ZR-75-1 breast cancer cell line)
Test: In vitro cell-based assay: tri-methyl H3K4 immuno-blotting in ZR-75-1 breast cancer cells
Details: Homo sapiens, 72 hours with test compound, read-out: Cellular IC50
Text: This quantitative immuno-blotting assay measures the amount tri-methylated histone H3 at amino acid Lysine number 4, a specific substrate […] of the direct enzymatic activity of the histone demethylases KDM5A and KDM5B from extracts of the ZR-75-1 breast cancer cell line.
This assay is a fluorometric immunoassay for the quantification of tri-methyl H3K4 extracted from cells treated with test compound and is used as a measure of the cellular inhibition of KDM5A/B.
ZR-75-1(PTEN null, ER+) breast cancer cells numbering 50,000 (ATCC) were seeded into each well of a 96-well tissue culture treated plate and then exposed to an 11 point dilution of test compound with final concentration ranges of test compound ranging from […] to 10 nM. […] Extracts were prepared containing all of the cellular histone material using detergent based lysis and sonication methods. These lysates were subsequently normalized for total protein content using a colorimetric bicinchonic acid assay (MicroBCA Pierce/Thermo Scientific). Normalized cell extracts were then subjected to typical immuno-blotting procedures using NuPage reagents (Life Technologies). Electrophoretically separated histones were then transferred and immobilized using polyvinylidene difluoride membrane (Immobilon-FL Millipore). The amount of tri-methylated lysine 4 of histone H3 was detected using an antibody specific to the tri-methylated state (Cell Signaling Technologies) and quantified on an infrared imager using a densitometry software package (Odyssey CLx, Image Studio, Li-Cor). This background subtracted densitometry value was reported as a ration of the GAPDH amount for that sample and then calculated as a percent of the DMSO treated sample. The software package XL-fit (IDBS) was then used to calculate a relative IC50 value for the dilution series of a given test compound according to the equation: fit=(D+((Vmax*(x^n))/((x^n)+(Km^n)))).

Row | Structure (SMILES) | IC50 [nM]
1 | COc1cc(Cl)ccc1COc1ccnn1-c1cc(C(=O)O)ccn1 [Example 90, 2-[5-[(4-chloro-2-methoxyphenyl)methoxy]pyrazol-1-yl]pyridine-4-carboxylic acid] | 100 to 1000
2 | Cc1cc(I)ccc1COc1ccnn1-c1cc(C(=O)O)ccn1 [Example 144, 2-[5-[(4-iodo-2-methylphenyl)methoxy]pyrazol-1-yl]pyridine-4-carboxylic acid] | 1000 to 10000
3 | Cc1ccc(COc2ccnn2-c2cc(C(=O)O)ccn2)c(F)c1F [Example 94, 2-[5-[(2,3-difluoro-4-methylphenyl)methoxy]pyrazol-1-yl]pyridine-4-carboxylic acid] | 1000 to 10000
4 | N#Cc1ccc(COc2ccnn2-c2cc(C(=O)O)ccn2)cc1 [Example 99, 2-[5-[(4-cyanophenyl)methoxy]pyrazol-1-yl]pyridine-4-carboxylic acid] | 100 to 1000
5 | Cc1cc(Br)ccc1COc1ccnn1-c1cc(C(=O)O)ccn1 [Example 142, 2-[5-[(4-bromo-2-methylphenyl)methoxy]pyrazol-1-yl]pyridine-4-carboxylic acid] | 1000 to 10000
6 | O=C(O)c1ccnc(-n2nccc2OCC2CCC(F)(F)CC2)c1 [Example 71, 2-{5-[(4,4-difluorocyclohexyl)methoxy]-1H-pyrazol-1-yl}pyridine-4-carboxylic acid] | 1000 to 10000
7 | COC(=O)c1ccnc(-n2nccc2OCc2ccc(F)c(F)c2)c1 [Example 63, methyl 2-{5-[(3,4-difluorobenzyl)oxy]-1H-pyrazol-1-yl}pyridine-4-carboxylate] | 100 to 1000
8 | O=C(O)c1ccnc(-n2nccc2OCc2ccc(Cl)c(OCC3CC3)c2)c1 [Example 140, 2-[5-[[4-chloro-3-(cyclopropylmethoxy)phenyl]methoxy]pyrazol-1-yl]pyridine-4-carboxylic acid] | 1000 to 10000
9 | O=C(O)c1ccnc(-n2nccc2OCc2ccc(F)cc2OCc2ccc(F)cc2)c1 [Example 118, 2-[5-[[4-fluoro-2-[(4-fluorophenyl)methoxy]phenyl]methoxy]pyrazol-1-yl]pyridine-4-carboxylic acid] | 1000 to 10000
10 | O=C(O)c1ccnc(-n2nccc2OCc2cccc(Cl)c2)c1 [Example 58, 2-{5-[(3-chlorobenzyl)oxy]-1H-pyrazol-1-yl}pyridine-4-carboxylic acid] | 100 to 1000
11 | O=C(O)c1ccnc(-n2nccc2OCc2ccc(Cl)cc2F)c1 [Example 75, 2-{5-[(4-chloro-2-fluorobenzyl)oxy]-1H-pyrazol-1-yl}pyridine-4-carboxylic acid] | 1000 to 10000
12 | Cc1cc(F)ccc1COc1ccnn1-c1cc(C(=O)O)ccn1 [Example 128, 2-[5-[(4-fluoro-2-methylphenyl)methoxy]pyrazol-1-yl]pyridine-4-carboxylic acid] | 100 to 1000
13 | O=C(O)c1ccnc(-n2nccc2OCc2ccc(Cl)cc2)c1 [Example 53, 2-{5-[(4-chlorobenzyl)oxy]-1H-pyrazol-1-yl}pyridine-4-carboxylic acid] | 100 to 1000
14 | COc1cc(I)ccc1COc1ccnn1-c1cc(C(=O)O)ccn1 [Example 145, 2-[5-[(4-iodo-2-methoxyphenyl)methoxy]pyrazol-1-yl]pyridine-4-carboxylic acid] | 1000 to 10000
15 | CCc1ccc(COc2ccnn2-c2cc(C(=O)O)ccn2)c(F)c1 [Example 151, 2-[5-[(4-ethyl-2-fluorophenyl)methoxy]pyrazol-1-yl]pyridine-4-carboxylic acid] | 1000 to 10000
16 | CCc1cc(C#N)ccc1COc1ccnn1-c1cc(C(=O)O)ccn1 [Example 126, 2-[5-[(4-cyano-2-ethylphenyl)methoxy]pyrazol-1-yl]pyridine-4-carboxylic acid] | > 10000
17 | O=C(O)c1ccnc(-n2nccc2OCc2ccc(Cl)c(OCC(F)(F)F)c2)c1 [Example 141, 2-[5-[[4-chloro-3-(2,2,2-trifluoroethoxy)phenyl]methoxy]pyrazol-1-yl]pyridine-4-carboxylic acid] | 1000 to 10000
18 | O=C(O)c1ccnc(-n2nccc2OCc2ccccc2)c1 [Example 39, 2-(5-(benzyloxy)-1H-pyrazol-1-yl)isonicotinic acid] | 1000 to 10000
19 | Cc1ccc(COc2ccnn2-c2cc(C(=O)O)ccn2)c(F)c1 [Example 131, 2-[5-[(2-fluoro-4-methylphenyl)methoxy]pyrazol-1-yl]pyridine-4-carboxylic acid] | 1000 to 10000

Row | Structure (SMILES) | IC50 [nM]
20 | CCc1cc(F)ccc1COc1ccnn1-c1cc(C(=O)O)ccn1 [Example 129, 2-[5-[(2-ethyl-4-fluorophenyl)methoxy]pyrazol-1-yl]pyridine-4-carboxylic acid] | 1000 to 10000
21 | O=C(O)c1ccnc(-n2nccc2OCc2ccc(F)cc2F)c1 [Example 86, 2-[5-[(2,4-difluorophenyl)methoxy]pyrazol-1-yl]pyridine-4-carboxylic acid] | 1000 to 10000
22 | COC(=O)c1ccnc(-n2nccc2OCc2ccc(C#N)cc2)c1 [Example 98, methyl 2-[5-[(4-cyanophenyl)methoxy]pyrazol-1-yl]pyridine-4-carboxylate] | 1000 to 10000
23 | Cc1ccc(COc2ccnn2-c2cc(C(=O)O)ccn2)cc1Cl [Example 92, 2-[5-[(3-chloro-4-methylphenyl)methoxy]pyrazol-1-yl]pyridine-4-carboxylic acid] | 100 to 1000
24 | Cc1ccc(COc2ccnn2-c2cc(C(=O)O)ccn2)cc1F [Example 93, 2-[5-[(3-fluoro-4-methylphenyl)methoxy]pyrazol-1-yl]pyridine-4-carboxylic acid] | 100 to 1000
25 | O=C(O)c1ccnc(-n2nccc2OCc2ccc(F)c(F)c2)c1 [Example 52, 2-{5-[(3,4-difluorobenzyl)oxy]-1H-pyrazol-1-yl}pyridine-4-carboxylic acid] | 100 to 1000
26 | Cc1ccc(COc2ccnn2-c2cc(C(=O)O)ccn2)c(C)c1 [Example 132, 2-[5-[(2,4-dimethylphenyl)methoxy]pyrazol-1-yl]pyridine-4-carboxylic acid] | 100 to 1000
27 | CC(Oc1cc(F)ccc1COc1ccnn1-c1cc(C(=O)O)ccn1)c1ccccc1 (centres unmarked) [Example 137, 2-[5-[[4-fluoro-2-(1-phenylethoxy)phenyl]methoxy]pyrazol-1-yl]pyridine-4-carboxylic acid] | 1000 to 10000
28 | O=C(O)c1ccnc(-n2nccc2OCc2ccc(Cl)c(OCc3ccc(F)cc3)c2)c1 [Example 138, 2-[5-[[4-chloro-3-[(4-fluorophenyl)methoxy]phenyl]methoxy]pyrazol-1-yl]pyridine-4-carboxylic acid] | 1000 to 10000
29 | COC(=O)c1ccnc(-n2nccc2OCc2ccc(Cl)cc2)c1 [Example 64, Methyl 2-{5-[(4-chlorobenzyl)oxy]-1H-pyrazol-1-yl}pyridine-4-carboxylate] | 100 to 1000
30 | CC(Oc1cc(Cl)ccc1COc1ccnn1-c1cc(C(=O)O)ccn1)c1ccccc1 (centres unmarked) [Example 136, 2-[5-[[4-chloro-2-(1-phenylethoxy)phenyl]methoxy]pyrazol-1-yl]pyridine-4-carboxylic acid] | 1000 to 10000
31 | Cc1ccc(COc2ccnn2-c2cc(C(=O)O)ccn2)c(C#N)c1 [Example 134, 2-[5-[(2-cyano-4-methylphenyl)methoxy]pyrazol-1-yl]pyridine-4-carboxylic acid] | 1000 to 10000
32 | O=C(O)c1ccnc(-n2nccc2OCc2ccc(F)cc2CCc2ccc(F)cc2)c1 [Example 121, 2-[5-[[4-fluoro-2-[2-(4-fluorophenyl)ethyl]phenyl]methoxy]pyrazol-1-yl]pyridine-4-carboxylic acid] | 1000 to 10000
33 | CCc1ccc(COc2ccnn2-c2cc(C(=O)O)ccn2)cc1 [Example 56, 2-{5-[(4-ethylbenzyl)oxy]-1H-pyrazol-1-yl}pyridine-4-carboxylic acid] | 100 to 1000
34 | O=C(O)c1ccnc(-n2nccc2OCc2ccc(F)cc2)c1 [Example 40, 2-{5-[(4-fluorobenzyl)oxy]-1H-pyrazol-1-yl}pyridine-4-carboxylic acid] | 100 to 1000
35 | Cc1ccc(COc2ccnn2-c2cc(C(=O)O)ccn2)c(Cl)c1 [Example 130, 2-[5-[(2-chloro-4-methylphenyl)methoxy]pyrazol-1-yl]pyridine-4-carboxylic acid] | 1000 to 10000
36 | O=C(O)c1ccnc(-n2nccc2OCc2cccc(F)c2)c1 [Example 41, 2-{5-[(3-fluorobenzyl)oxy]-1H-pyrazol-1-yl}pyridine-4-carboxylic acid] | > 10000
37 | O=C(O)c1ccnc(-n2nccc2OCc2ccc(F)c(Cl)c2)c1 [Example 76, 2-{5-[(3-chloro-4-fluorobenzyl)oxy]-1H-pyrazol-1-yl}pyridine-4-carboxylic acid] | 1000 to 10000
38 | Cc1ccc(COc2ccnn2-c2cc(C(=O)O)ccn2)cc1 [Example 55, 2-{5-[(4-methylbenzyl)oxy]-1H-pyrazol-1-yl}pyridine-4-carboxylic acid] | 100 to 1000
